Measurements from patent publication US20250194599A1, “PESTICIDE FORMULATIONS” (FMC CORPORATION, priority 2022, published 2025).

How the values were obtained:
Type in all cases: in vivo
Cydia pomonella [1] = test: Field trial Example 2: number of damaged fruit across treatment groups, apple; conditions: Example 2, foliar application, treatments of Table 4, FIGS. 4-5
Protocol: (§1) A field trial was conducted in Argentina to evaluate the efficacy of chlorantraniliprole in combination with a kairomone, ethyl (2E,4Z)-2,4-decadienoate, to improve Cydia pomonella control in foliar application of apple (Malus domestica) compared to the efficacy of chlorantraniliprole alone and kairomone alone. SC=suspension concentrate; CS=capsule suspension
(§2) Efficacy of the trial was evaluated by (1) comparing the number of damaged fruit across the treatment groups; and (2) comparing the larva captured per hectare that were captured from corrugated cardboard traps settled in 100 trees. As shown in FIGS. 4-5, there was a significant difference in damaged fruits treatments that included chlorantraniliprole+kairomone compared to fruits treated with only chlorantraniliprole.

Cydia pomonella [2] = test: Field trial Example 2: larva per hectare captured from corrugated cardboard traps in 100 trees; conditions: treatments of Table 4, FIG. 6
Protocol: as §1, §2

Cydia pomonella [3] = test: Field trial Example 1: pupae counts in corrugated cardboard tree bands on 100 trees; conditions: Trial 4 (highest infestation), programs of Table 1
Protocol: (§3) A field trial was conducted in Argentina to determine the effect of blending codling moth pheromone, (E,E)-8,10-dodecadien-1-ol, with chlorantraniliprole for control of coding moth population in apple orchards. The first flight of codling moth was targeted, at which time standard grower treatment pheromone dispensers had been placed in the respective fields. Applications of the chlorantraniliprole or chlorantraniliprole+pheromone were timed when eggs were expected to hatch.
(§4) Treatment programs comprising nine tracts of land across three farms were performed (see FIGS. 1A-C). SC=suspension concentrate; VP=vapor releasing product; WG=water-dispersible granules.
(§5) In brief, one treatment program was performed using an application of pheromone alone at 90 DD followed by applications of chlorantraniliprole plus pheromone at 250 DD and 250DD+21 days, respectively. A separate treatment was performed by applying chlorantraniliprole alone at 250 DD and 250DD+21 days. […]
(§6) Treatment effects were determined by conducting fruit damage counts prior to second generation flights by evaluating 1000 fruit in each plot for codling moth damage. […] The bands were removed during the second week of January, taken to the lab and counted.

Cydia pomonella [4] = test: Field trial Example 1: fruit damage counts, 1000 fruit per plot, apple orchards; conditions: Trial 4 (highest codling moth infestation), apple orchard, Argentina; programs of Table 1; letters = significantly different groups (Chi-square)
Protocol: as §3, §4, §5, §6

CCCCC/C=C\C=C\C(=O)OCC [Kairomone, ethyl (2E,4Z)-2,4-decadienoate]
damaged fruits out of 1000 fruits per treatment (Cydia pomonella [1]): number of damaged fruits significantly higher compared to all other treatments
larva per hectare captured in corrugated cardboard traps (Cydia pomonella [2]): larva per hectare significantly higher compared to all other treatments

CNC(=O)c1cc(Cl)cc(C)c1NC(=O)c1cc(Br)nn1-c1ncccc1Cl [Chlorantraniliprole Alone, 3-bromo-N-(4-chloro-2-methyl-6-(methylcarbamoyl)phenyl)-1-(3-chloropyridin-2-yl)-1H-pyrazole-5-carboxamide]
# of Pupae Found (Cydia pomonella [3]): 1782
# Damaged Fruit/ 1000 fruit (Cydia pomonella [4]): 39c
